Data reported in patent US10028942B2 (priority 2013, dated 2018).

Molecular target: T1, DLK (Homo sapiens, UniProt Q12852)
T1 sequence (Q12852 1-520): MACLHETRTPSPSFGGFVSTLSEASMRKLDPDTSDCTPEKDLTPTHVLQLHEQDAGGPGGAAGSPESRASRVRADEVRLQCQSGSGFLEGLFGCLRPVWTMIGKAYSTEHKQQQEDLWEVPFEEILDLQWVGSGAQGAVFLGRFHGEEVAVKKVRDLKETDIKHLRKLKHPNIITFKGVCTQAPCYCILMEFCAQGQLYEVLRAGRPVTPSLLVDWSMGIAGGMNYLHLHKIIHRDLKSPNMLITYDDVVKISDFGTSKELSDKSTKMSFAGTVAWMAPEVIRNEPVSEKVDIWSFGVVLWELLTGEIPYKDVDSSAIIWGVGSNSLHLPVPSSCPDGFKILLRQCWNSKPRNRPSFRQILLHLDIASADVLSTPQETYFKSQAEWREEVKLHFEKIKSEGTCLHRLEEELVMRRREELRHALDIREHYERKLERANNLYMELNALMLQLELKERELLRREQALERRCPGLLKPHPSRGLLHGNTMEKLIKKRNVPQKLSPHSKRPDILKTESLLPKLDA
Conditions: read-out: DLK (Ki) μM; TR-FRET; 5 nM GST-tagged DLK (catalytic domain aa 1-520), 40 nM HIS-MKK4 K131M substrate, 30 μM ATP, 60 minutes

| SMILES | Ki |
| --- | --- |
| Nc1ncc(-c2cc([C@H]3[C@@H]4CN(C5COC5)C[C@@H]43)n(C3CCC3)n2)cc1Cl [Compound 147, 3-chloro-5-(1-cyclobutyl-5-((1R,5S,6r)-3-(oxetan-3-yl)-3-azabicyclo[3.1.0]hexan-6-yl)-1H-pyrazol-3-yl)pyri-din-2-amine] | 0.018 µM |
| Nc1ncc(-c2cc([C@H]3[C@@H]4CN(C5COC5)C[C@@H]43)n(C3CCC3)n2)cc1C(F)(F)F [Compound 148, 5-(1-cyclobutyl-5-((1R,5S,6r)-3-(oxetan-3-yl)-3-azabicyclo[3.1.0]hexan-6-yl)-1H-pyrazol-3-yl)-3-(trifluoromethyl)pyridin-2-amine] | 0.0012 µM |
| Nc1ncc(-c2cc([C@H]3[C@@H]4CN(C5COC5)C[C@@H]43)n(CC3CC3)n2)cc1C(F)(F)F [Compound 152, 5-(1-(cyclopropylmethyl)-5-((1R,5S,6r)-3-(oxetan-3-yl)-3-azabicyclo[3.1.0]hexan-6-yl)-1H-pyrazol-3-yl)-3-(tri-fluoromethyl)pyridin-2-amine] | 0.00017 µM |
| Nc1ncc(-c2cc([C@H]3[C@@H]4CN(C5COC5)C[C@@H]43)n(C3CCC3)n2)cc1C1CC1 [Compound 153, 5-(1-cyclobutyl-5-((1R,5S,6r)-3-(oxe-tan-3-yl)-3-azabicyclo[3.1.0]hexan-6-yl)-1H-pyrazol-3-yl)-3-cyclopropyl-pyridin-2-amine] | 0.011 µM |
| Nc1ncc(-c2cc([C@H]3[C@@H]4CN(C5COC5)C[C@@H]43)n(CC3CC3)n2)cc1Cl [Compound 154, 3-chloro-5-(1-(cyclopropylmethyl)-5-((1R,5S,6r)-3-(oxetan-3-yl)-3-azabicyclo[3.1.0]hexan-6-yl)-1H-pyrazol-3-yl)pyridin-2-amine] | 0.025 µM |
| CS(=O)(=O)c1cc(-c2cc([C@H]3[C@@H]4CN(C5COC5)C[C@@H]43)n(C3CCCC3)n2)cnc1N [Compound 155, 5-(1-cyclopentyl-5-((1R,5S,6r)-3-(oxe-tan-3-yl)-3-azabicyclo[3.1.0]hexan-6-yl)-1H-pyrazol-3-yl)-3-(methyl-sulfonyl)pyridin-2-amine] | 0.3 µM |
| Nc1ncc(-c2cc([C@H]3[C@@H]4CN(C5COC5)C[C@@H]43)n(CC3CCC3)n2)cc1C(F)(F)F [Compound 160, 5-(1-(cyclobutylmethyl)-5-((1R,5S,6r)-3-(oxetan-3-yl)-3-azabicyclo[3.1.0]hexan-6-yl)-1H-pyrazol-3-yl)-3-(tri-fluoromethyl)pyridin-2-amine] | 0.0081 µM |
| Nc1ncc(-c2cc([C@H]3[C@@H]4CN(C5COC5)C[C@@H]43)n(CC3CC3)n2)cc1C1CC1 [Compound 161, 3-cyclopropyl-5-(1-(cyclopropylmeth-yl)-5-((1R,5S,6r)-3-(oxetan-3-yl)-3-azabicyclo[3.1.0]hexan-6-yl)-1H-pyrazol-3-yl)pyridin-2-amine] | 0.021 µM |
| Nc1ncc(-c2cc([C@H]3[C@@H]4CN(C5COC5)C[C@@H]43)n(CC3CCC3)n2)cc1C1CC1 [Compound 162, 5-(1-(cyclobutylmethyl)-5-((1R,5S,6r)-3-(oxetan-3-yl)-3-azabicyclo[3.1.0]hexan-6-yl)-1H-pyrazol-3-yl)-3-cyclopropylpyridin-2-amine] | 0.066 µM |
| Nc1ncc(-c2cc([C@H]3[C@@H]4CN(C5COC5)C[C@@H]43)n(C3CCC3)n2)cc1OC(F)(F)F [Compound 163, 5-(1-cyclobutyl-5-((1R,5S,6r)-3-(oxe-tan-3-yl)-3-azabicyclo[3.1.0]hexan-6-yl)-1H-pyrazol-3-yl)-3-(trifluorometh-oxy)pyridin-2-amine] | 0.013 µM |
| Nc1ncc(-c2cc([C@H]3[C@@H]4CN(C5COC5)C[C@@H]43)n(C3CCCC3)n2)cc1OC(F)(F)F [Compound 166, 5-(1-cyclopentyl-5-((1R,5S,6r)-3-(oxe-tan-3-yl)-3-azabicyclo[3.1.0]hexan-6-yl)-1H-pyrazol-3-yl)-3-(trifluoro-methoxy)pyridin-2-amine] | 0.0047 µM |
| Nc1ncc(-c2cc([C@H]3[C@@H]4CN(C5COC5)C[C@@H]43)n(C3CC3)n2)cc1C(F)(F)F [Compound 168, 5-(1-cyclopropyl-5-((1R,5S,6r)-3-(oxe-tan-3-yl)-3-azabicyclo[3.1.0]hexan-6-yl)-1H-pyrazol-3-yl)-3-(trifluoro-methyl)pyridin-2-amine] | 0.0047 µM |

Second part, the compound after the results:

| Ki | SMILES |
| --- | --- |
| 0.0074 µM | COc1cc(-c2cc([C@H]3[C@@H]4CN(C5COC5)C[C@@H]43)n(C(C)C)n2)cnc1N [Compound 145, 5-(1-isopropyl-5-((1R,5S,6r)-3-(oxetan-3-yl)-3-azabicyclo[3.1.0]hexan-6-yl)-1H-pyrazol-3-yl)-3-methoxy-pyridin-2-amine] |
| 0.014 µM | CC(C)Oc1cc(-c2cc([C@H]3[C@@H]4CN(C5COC5)C[C@@H]43)n(C(C)C)n2)cnc1N [Compound 146, 3-isopropoxy-5-(1-isopropyl-5-((1R,5S,6r)-3-(oxetan-3-yl)-3-azabicyclo [3.1.0]hexan-6-yl)-1H-pyrazol-3-yl) pyridin-2-amine] |
| 0.0055 µM | Nc1ncc(-c2cc([C@H]3[C@@H]4CN(C5COC5)C[C@@H]43)n(C3CCC3)n2)cc1OC(F)F [Compound 151, 5-(1-cyclobutyl-5-((1R,5S,6r)-3-(oxe-tan-3-yl)-3-azabicyclo[3.1.0]hexan-6-yl)-1H-pyrazol-3-yl)-3-(difluorometh-oxy)pyridin-2-amine] |
| 0.032 µM | CC(C)Oc1cc(-c2cc([C@H]3[C@@H]4CN(C5COC5)C[C@@H]43)n(C3CCCC3)n2)cnc1N [Compound 156, 5-(1-cyclopentyl-5-((1R,5S,6r)-3-(oxe-tan-3-yl)-3-azabicyclo[3.1.0]hexan-6-yl)-1H-pyrazol-3-yl)-3-isopropoxy-pyridin-2-amine] |
| 0.035 µM | COc1cc(-c2cc([C@H]3[C@@H]4CN(C5COC5)C[C@@H]43)n(C3CCCC3)n2)cnc1N [Compound 157, 5-(1-cyclopentyl-5-((1R,5S,6r)-3-(oxe-tan-3-yl)-3-azabicyclo[3.1.0]hexan-6-yl)-1H-pyrazol-3-yl)-3-methoxy-pyridin-2-amine] |
| 0.035 µM | CC(C)n1nc(-c2cnc(N)c(C(F)F)c2)cc1[C@H]1[C@@H]2CN(C3COC3)C[C@@H]21 [Compound 158, 3-(difluoromethyl)-5-(1-isopropyl-5-((1R,5S,6r)-3-(oxetan-3-yl)-3-azabi-cyclo[3.1.0]hexan-6-yl)-1H-pyrazol-3-yl)pyridin-2-amine] |
| 0.013 µM | Nc1ncc(-c2cc([C@H]3[C@@H]4CN(C5COC5)C[C@@H]43)n(CC3CCC3)n2)cc1OC(F)F [Compound 164, 5-(1-(cyclobutylmethyl)-5-((1R,5S,6r)-3-(oxetan-3-yl)-3-azabicyclo[3.1.0]hexan-6-yl)-1H-pyrazol-3-yl)-3-(di-fluoromethoxy)pyridin-2-amine] |
| 0.0019 µM | CC(C)n1nc(-c2cnc(N)c(OC(F)(F)F)c2)cc1[C@H]1[C@@H]2CN(C3COC3)C[C@@H]21 [Compound 165, 5-(1-isopropyl-5-((1R,5S,6r)-3-(oxe-tan-3-yl)-3-azabicyclo[3.1.0]hexan-6-yl)-1H-pyrazol-3-yl)-3-(trifluorometh-oxy)pyridin-2-amine] |
| 0.027 µM | CC(C)(C)n1nc(-c2cnc(N)c(C(F)(F)F)c2)cc1[C@H]1[C@@H]2CN(C3COC3)C[C@@H]21 [Compound 167, 5-(1-(tert-butyl)-5-((1R,5S,6r)-3-(oxe-tan-3-yl)-3-azabicyclo[3.1.0]hexan-6-yl)-1H-pyrazol-3-yl)-3-(trifluorometh-yl)pyridin-2-amine] |
